From ChEMBL document CHEMBL4814003, “Novel dual-mode antitumor chlorin-based derivatives as potent photosensitizers and histone deacetylase inhibitors for photodynamic therapy and chemotherapy” (Eur J Med Chem, 2021) come the findings set out here.

Data set [1] deals with A549. The data set can be described thus: Induction of autophagy in human A549 cells irradiated 10 j/cm2 at 0.1 uM after 24 hrs using fluorescent molecule DAPRed. The data set is classed as functional.
A short description of data set [2]: Drug uptake in human A549 cells after 24 hrs by fluorescence spectrophotometer analysis relative to tala-porfin. The note with it: a549, 24 h. The data set is classed as ADME, cell-based.
A short description of data set [3]: Drug uptake in human A549 cells assessed as compound localization in golgi at 0.1 uM measured after 24 hrs by Golgi tracker Green dye based laser confocal microscopy. The data set is classed as ADME, subcellular, Golgi body. The settings on record: a549, 24 h.
Data set [4] addresses T1, Protein deacetylase HDAC6 (Homo sapiens, UniProt Q9UBN7).
T1 sequence (Q9UBN7 whole entry): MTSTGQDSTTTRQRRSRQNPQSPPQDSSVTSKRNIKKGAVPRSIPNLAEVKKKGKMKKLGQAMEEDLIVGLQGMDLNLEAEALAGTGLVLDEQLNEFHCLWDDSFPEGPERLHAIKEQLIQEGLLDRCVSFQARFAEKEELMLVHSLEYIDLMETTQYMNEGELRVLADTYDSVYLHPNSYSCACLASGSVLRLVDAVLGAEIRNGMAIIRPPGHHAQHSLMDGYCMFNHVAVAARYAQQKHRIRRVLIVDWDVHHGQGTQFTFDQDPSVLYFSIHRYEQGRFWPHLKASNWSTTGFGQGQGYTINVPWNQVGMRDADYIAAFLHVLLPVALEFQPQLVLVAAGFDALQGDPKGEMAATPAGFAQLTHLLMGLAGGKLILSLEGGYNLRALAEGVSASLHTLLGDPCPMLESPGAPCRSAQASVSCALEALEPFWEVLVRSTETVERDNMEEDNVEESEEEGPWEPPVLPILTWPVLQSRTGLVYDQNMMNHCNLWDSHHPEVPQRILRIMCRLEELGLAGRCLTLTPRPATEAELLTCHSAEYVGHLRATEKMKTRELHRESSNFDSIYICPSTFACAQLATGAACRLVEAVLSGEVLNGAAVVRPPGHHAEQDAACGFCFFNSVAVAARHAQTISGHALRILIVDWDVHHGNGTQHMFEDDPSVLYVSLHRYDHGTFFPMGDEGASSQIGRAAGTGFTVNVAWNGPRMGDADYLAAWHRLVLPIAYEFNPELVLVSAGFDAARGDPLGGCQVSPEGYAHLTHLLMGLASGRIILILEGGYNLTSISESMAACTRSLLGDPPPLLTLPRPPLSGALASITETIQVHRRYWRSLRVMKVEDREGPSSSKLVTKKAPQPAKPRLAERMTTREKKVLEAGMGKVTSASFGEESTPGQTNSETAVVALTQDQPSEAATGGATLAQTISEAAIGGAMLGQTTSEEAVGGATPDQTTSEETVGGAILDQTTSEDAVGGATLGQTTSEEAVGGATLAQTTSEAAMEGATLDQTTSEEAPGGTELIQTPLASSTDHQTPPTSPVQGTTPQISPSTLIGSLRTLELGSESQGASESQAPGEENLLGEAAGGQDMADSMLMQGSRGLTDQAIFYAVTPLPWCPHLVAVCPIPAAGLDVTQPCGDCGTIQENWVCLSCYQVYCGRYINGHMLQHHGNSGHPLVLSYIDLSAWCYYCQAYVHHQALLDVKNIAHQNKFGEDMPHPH
Description: Inhibition of human recombinant HDAC6 using Ac-Leu-Gly-Lys(Ac)-AMC as substrate by measuring fluorescence intensity incubated for 30 mins by microplate reader assay.

Data set [5] has as its target T2, Histone deacetylase 1 (Homo sapiens, UniProt Q13547). Description: Inhibition of human recombinant HDAC1 in human A 549 cells assessed as effect on acetyl-H3 expression upto 2 uM measured after 24 hrs by western blot analysis. The data set is classed as cell-based. The note with it: A549, dose microM <=2, time 24.0 hrs. On the technique in general: A western blot detects proteins with antibodies after separation by electrophoresis.

The test system of data set [6] is A549. The data set can be described thus: Induction of reactive oxygen species generation in human A549 cells assessed as mean count value at 0.01 uM incubated for 24 hrs by DCFH-DA staining based fluorescence microscopy assay. The data set is classed as functional.
Data set [7] in a line: Drug uptake in human A549 cells assessed as compound localization in nucleus at 0.1 uM measured after 24 hrs by laser confocal microscopy. The data set is classed as ADME, subcellular. The settings on record: a549, 24 h.
Data set [8] has as its system A549. The data set can be described thus: Induction of apoptosis in human A549 cells assessed as apoptotic cells at 0.5 uM in absence of light irradiation incubated for 48 hrs by annexin V-FITC staining based flow cytometry. The data set is classed as functional.
Data set [9] concerns A549. The data set can be described thus: Induction of apoptosis in human A549 cells assessed as apoptotic cells at 0.01 uM in presence of light irradiation incubated for 48 hrs by annexin V-FITC staining based flow cytometry. The data set is classed as functional.
Data set [10] addresses T2, Histone deacetylase 1. The data set can be described thus: Inhibition of human recombinant HDAC1 in human A 549 cells assessed as effect on acetyl-H4 expression measured after 24 hrs by western blot analysis. The data set is classed as cell-based. The settings on record: A549, dose microM <=2, time 24.0 hrs.
In data set [11] the test system is HCT-116. Description: Phototoxicity in human HCT-116 cells assessed as reduction in cell viability irradiated 10 j/cm2 for 24 hrs followed by incubated for 24 hrs by CCK8 assay. The data set is classed as functional, cell-based. The settings on record: HCT-116, light or radiation study. (Tetrazolium dyes change colour on reduction, which living cells bring about.)

A short description of data set [12]: Drug uptake in human A549 cells assessed as compound localization in ER at 0.1 uM measured after 24 hrs by ERtracker Green dye based laser confocal microscopy. The data set is classed as ADME, subcellular, Endoplasmic reticulum. The settings on record: a549, 24 h.
Data set [13] in a line: Drug uptake in human A549 cells assessed as compound localization in lysosome at 0.1 uM measured after 24 hrs by Lysotracker Green DND-26 dye based laser confocal microscopy. The settings on record: a549, 24 h. The data set is classed as ADME, subcellular.
The subject of data set [14] is HCT-116. The data set can be described thus: Dark toxicity in human HCT-116 cells assessed as reduction in cell viability incubated under dark for 48 hrs measured after 48 hrs by CCK8 assay. The data set is classed as functional, cell-based. The note with it: HCT-116, 48 h.
The next data set addresses Histone deacetylase 2 (Homo sapiens, UniProt Q92769). The data set can be described thus: Inhibition of human recombinant HDAC2 using Ac-Leu-Gly-Lys(Ac)-AMC as substrate by measuring fluorescence intensity incubated for 30 mins by microplate reader assay.
In the next data set the target is Histone deacetylase 3 (Homo sapiens, UniProt O15379). The data set can be described thus: Inhibition of human recombinant HDAC3 using Ac-Leu-Gly-Lys(Ac)-AMC as substrate by measuring fluorescence intensity incubated for 30 mins by microplate reader assay.

The structures appear in SMILES notation. Calls of active or inactive are those of the source. The calls are words filed in the database; no cut-off is given here.

T2 sequence (Q13547 whole entry): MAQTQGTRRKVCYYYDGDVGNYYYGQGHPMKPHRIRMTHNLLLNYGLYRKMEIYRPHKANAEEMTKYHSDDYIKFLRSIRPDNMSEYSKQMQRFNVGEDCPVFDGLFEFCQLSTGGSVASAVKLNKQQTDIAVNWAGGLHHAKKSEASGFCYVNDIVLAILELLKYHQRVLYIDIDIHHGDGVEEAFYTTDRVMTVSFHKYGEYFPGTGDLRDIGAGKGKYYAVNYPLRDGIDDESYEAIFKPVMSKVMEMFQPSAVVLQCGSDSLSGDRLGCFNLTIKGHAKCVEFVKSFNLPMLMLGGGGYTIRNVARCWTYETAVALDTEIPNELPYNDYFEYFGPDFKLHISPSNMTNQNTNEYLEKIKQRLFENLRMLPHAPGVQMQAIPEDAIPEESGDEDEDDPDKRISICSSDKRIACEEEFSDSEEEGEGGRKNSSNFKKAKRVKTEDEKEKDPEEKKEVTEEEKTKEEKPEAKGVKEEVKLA
Histone deacetylase 3, sequence (O15379 whole entry): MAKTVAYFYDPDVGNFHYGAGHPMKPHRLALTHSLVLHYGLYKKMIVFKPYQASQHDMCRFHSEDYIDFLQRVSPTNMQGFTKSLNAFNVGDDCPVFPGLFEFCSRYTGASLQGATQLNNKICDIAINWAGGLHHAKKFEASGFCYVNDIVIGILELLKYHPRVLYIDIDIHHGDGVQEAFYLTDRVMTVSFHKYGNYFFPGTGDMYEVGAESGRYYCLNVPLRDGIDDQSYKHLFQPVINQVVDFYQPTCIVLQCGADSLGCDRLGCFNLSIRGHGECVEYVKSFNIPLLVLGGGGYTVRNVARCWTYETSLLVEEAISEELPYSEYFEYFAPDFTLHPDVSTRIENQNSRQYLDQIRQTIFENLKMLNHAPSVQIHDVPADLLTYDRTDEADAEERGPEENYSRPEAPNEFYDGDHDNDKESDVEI
Histone deacetylase 2, sequence (Q92769 whole entry): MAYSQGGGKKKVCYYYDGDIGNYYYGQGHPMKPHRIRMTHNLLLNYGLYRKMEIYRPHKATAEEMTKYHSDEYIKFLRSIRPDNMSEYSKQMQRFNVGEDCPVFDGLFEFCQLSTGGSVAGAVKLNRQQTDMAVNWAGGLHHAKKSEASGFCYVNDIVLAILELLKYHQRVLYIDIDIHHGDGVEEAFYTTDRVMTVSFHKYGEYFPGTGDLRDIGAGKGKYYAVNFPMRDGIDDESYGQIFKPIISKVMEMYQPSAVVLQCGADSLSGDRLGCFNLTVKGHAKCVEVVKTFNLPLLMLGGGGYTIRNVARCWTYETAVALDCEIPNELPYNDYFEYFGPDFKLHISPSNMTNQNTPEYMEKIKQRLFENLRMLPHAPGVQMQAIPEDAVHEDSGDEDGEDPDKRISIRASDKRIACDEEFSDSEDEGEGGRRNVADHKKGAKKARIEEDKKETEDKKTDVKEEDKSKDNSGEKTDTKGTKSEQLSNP

As usually defined, the IC50 is the midpoint of a concentration-inhibition curve. Take `C=Cc1c(C)c2cc3nc(c(C(=O)OC)c4[nH]c(cc5nc(cc1[nH]2)C(C)=C5CC)c(C)c4C(=O)OC)[C@@H](CCC(=O)Nc1ccc(C(=O)Nc2ccccc2N)cc1)[C@@H]3C`: the outcome in the data set on A549 [1] was Active. The “fold change (FC)” value in data set [2] stood at 9. Moreover, the Drug uptake entry was “Active” in data set [3], “Not Active” in [7], “Active” in [12] and “Active” in [13]. Besides, the IC50 in [4] was > 100000 nM; in the data set with HCT-116 [11], 6 nM; with HCT-116 [14] it was 2790 nM; on Histone deacetylase 2 it was 2650 nM; on Histone deacetylase 3, 72100 nM. The inhibition result on Histone deacetylase 1 [5] is “inactive”. Also, the Activity in the data set with A549 [6] is listed as 770.81; with A549 [8], 54.74%; with A549 [9] it was 27.32%. Further, the inhibition entry at Histone deacetylase 1 [10] is “Dose-Dependent Effect”.
